Laboratory results as given in patent publication US10507212B2, “Method for use of homopiperazinium compounds in the treatment of cancer” (UNIVERSITÉ LAVAL, priority 2014, dated 2019).
Where a name gives a salt, the structure may show the parent alone. Read-outs that look alike come from different tables or passages of the source.

Assays:
[1] = test system: H82 small cell lung carcinoma; assay: Cell proliferation assay, H82 (CellTiter fluorescence); format: cell-based; settings: for inhibition at 300 µM / inhibition at 100 µM / IC50: Homo sapiens; for inhibition at 300 µM / inhibition at 100 µM: read-out: % Inhibition of Cell Growth at day 3 compared to vehicle-treated cells
Description: (§1) In vitro experiments were conducted on four cancer cell lines: the A549 adenocarcinoma cell line, the H520 squamous cell carcinoma the H82 small cell lung carcinoma and Calu 3 lung adenocarcinoma. The A549 tumor cells, were plated at a density of 1.5×10^4 cells per mL and let to adhere on 96-well microplates in F12K cell culture medium enriched with 10% fetal calf serum (FCS). The H520, H82 and Calu 3 tumor cells were plated at a density of 5×10^4 cells per mL in RPMI+10% FCS. After 24 h in culture, the medium was changed and cells were exposed to ASM-024 at concentrations ranging from 10^−7M to 10^−3M (FIGS. 1A-1C). After 3 and 6 days in culture, cell growth was quantified using the MTT colorimetric assay (M2128, Sigma) at 575-690 nm or the Cell Titer fluorescence assay (G8080, Promega) at 560/590 nm.
(§2) In an another set of experiments, a series of 16 other homopiperazinium compounds, in addition to ASM-024, were tested for their anti-proliferative effect on the four tumor cell lines described above after up to 6 days in culture at concentrations of 10^-7M to 10^-3M. (FIGS. 4A-4E) Cell growth was quantified using the MTT colorimetric assay for the A-549, H520 and Calu 3 cell lines and the CellTiter Fluorescence assay.for the H82 tumor cell line These are established method of determining viable cell number in proliferation studies.

[2] = test system: A549 adenocarcinoma cell line; assay: Cell proliferation assay, A549 (MTT)
Description: as §1, §2

[3] = test system: H520 squamous cell carcinoma; assay: Cell proliferation assay, H520 (MTT); format: cell-based
Description: as §1, §2

[4] = test system: Calu 3 lung adenocarcinoma; assay: Cell proliferation assay, Calu 3 (MTT); format: cell-based; settings: Homo sapiens
Description: as §1, §2

[5] = NCI-H82, 72 h, H82, day 3, 3 × 10^−4M
[6] = NCI-H82, 72 h, H82, day 3, 10^−4M
[7] = Homo sapiens, A549, 72 h, read-out: IC50 Day 3, A549, day 3 in culture
[8] = Homo sapiens, A549, 144 h, read-out: IC50 Day 6, A549, day 6 in culture
[9] = Homo sapiens, NCI-H520, 72 h, H520, day 3 in culture, read-out: IC50 Day 3
[10] = Homo sapiens, NCI-H520, 144 h, H520, day 6 in culture, read-out: IC50 Day 6
[11] = Homo sapiens, NCI-H520, 72 h, read-out: IC50 Day 3, H520, day 3 in culture
[12] = Homo sapiens, NCI-H520, 144 h, read-out: IC50 Day 6, H520, day 6 in culture
[13] = read-out: IC50 Day 3, A549, day 3 in culture
[14] = read-out: IC50 Day 6, A549, day 6 in culture
[15] = H520, day 3 in culture, read-out: IC50 Day 3
[16] = H520, day 6 in culture, read-out: IC50 Day 6
[17] = NCI-H82, 72 h, H82, day 3 in culture, read-out: IC50 Day 3
[18] = NCI-H82, 144 h, H82, day 6 in culture, read-out: IC50 Day 6
[19] = 72 h, Calu 3, day 3 in culture, read-out: IC50 Day 3
[20] = 144 h, Calu 3, day 6 in culture, read-out: IC50 Day 6
[21] = NCI-H82, 72 h, read-out: IC50 Day 3
[22] = NCI-H82, 144 h, read-out: IC50 Day 6

C[N+]1(C)CCCN(c2ccccn2)CC1 [ASM-016, 1,1-Dimethyl-4-(2-pyridyl)-homopiperazinium Iodide]
inhibition at 300 µM [1, 5]: -6% | inhibition at 100 µM [1, 6]: -22% | IC50 [2, 7]: 90 ± 15 µM | IC50 [2, 8]: 58 ± 22 µM | IC50 [3, 9]: 415 ± 212 µM | IC50 [3, 10]: 180 ± 92 µM

CCC[N+]1(C)CCCN(c2ccccn2)CC1 (centres unmarked) [ASM-018, 1-Methyl-1-propyl-4-(2-pyridyl)-homopiperazinium Iodide]
inhibition at 300 µM [1, 5]: 35% | inhibition at 100 µM [1, 6]: 15% | IC50 [2, 7]: 136 ± 39 µM | IC50 [2, 8]: 82 ± 32 µM | IC50 [3, 9]: > 1000 µM | IC50 [3, 10]: 536 ± 101 µM

CC[N+]1(C)CCCN(c2ccccn2)CC1 (centres unmarked) [ASM-017, 1-Ethyl-1-methyl-4-(2-pyridyl)-homopiperazinium Iodide]
inhibition at 100 µM ([1]; NCI-H82, 72 h): -26% | inhibition at 300 µM ([1]; NCI-H82, 72 h): -6% | IC50 [2, 7]: 89 ± 13 µM | IC50 [2, 8]: 65 ± 25 µM | IC50 [3, 11]: 953 ± 39 µM | IC50 [3, 12]: 469 ± 163 µM

CC[N+]1(CC)CCCN(c2ccccc2)CC1.[I-] [ASM-009, 1,1-Diethyl-4-phenyl-homopiperazinium Iodide]
% Inhibition of Cell Growth at day 3 compared to vehicle-treated cells ([1]; H82, day 3, 3 × 10^−4M): 35% | % Inhibition of Cell Growth at day 3 compared to vehicle-treated cells ([1]; H82, day 3, 10^−4M): −12% | IC50 [2, 13]: 51 ± 6 µM | IC50 [2, 14]: 48 ± 25 µM | IC50 [3, 15]: 892 ± 98 µM | IC50 [3, 16]: 396 ± 147 µM

C[N+]1(C)CCCN(c2ccc(C(F)(F)F)cc2)CC1 (as salt: iodide) [ASM-071, 4-Dimethyl-1-(4-trifluorophenyl)-homopiperazinium Iodide]
melting point: 224.3 to 225.4 °C

CC[N+]1(C)CCCN(c2ccccc2)CC1 (centres unmarked) [ASM-055, 1-Ethyl-1-Methyl-4-(phenyl)-homopiperazinium Tosylate]
inhibition at 300 µM [1, 5]: 66% | inhibition at 100 µM [1, 6]: 36% | IC50 [2, 7]: 60 ± 26 µM | IC50 [2, 8]: 28 ± 15 µM | IC50 [3, 9]: 622 ± 211 µM | IC50 [3, 10]: 272 ± 65 µM

CC[N+]1(CC)CCCN(c2ccc(Cl)cc2)CC1 [ASM-048, 1,1-Diethyl-4-(4-chlorophenyl)-homopiperazinium Tosylate]
IC50 [1, 17]: 246 µM | IC50 [1, 18]: 176 µM | IC50 [4, 19]: 276 µM | IC50 [4, 20]: 86 µM | IC50 [2, 7]: 37 µM | IC50 [2, 8]: 15 µM | IC50 [3, 9]: 322 µM | IC50 [3, 10]: 169 µM

C[N+]1(C)CCCN(c2ccccc2)CC1.[I-] [ASM-002, 1,1-dimethyl-4-phenylhomopiperazinium iodide]
inhibition at 100 µM ([1]; NCI-H82, 72 h): -15% | inhibition at 300 µM ([1]; NCI-H82, 72 h): 31% | melting point: 158 to 160 °C | IC50 [2, 7]: 40 ± 15 µM | IC50 [2, 8]: 38 ± 12 µM | IC50 [3, 11]: 323 ± 60 µM | IC50 [3, 12]: 170 ± 23 µM

Cc1cccc(N2CCC[N+](C)(C)CC2)c1 (as salt: tosylate) [ASM-068, 4-Dimethyl-1-(3-methylphenyl)-homopiperazinium Tosylate]
melting point: 161.6 to 162.5 °C

CC[N+]1(CC)CCCN(c2ccc(O)cc2)CC1 [ASM-073, 1,1-Diethyl-4-(phenyl-4-hydroxy)-homopiperazinium tosylate]
inhibition at 100 µM ([1]; NCI-H82, 72 h): 100% | inhibition at 300 µM ([1]; NCI-H82, 72 h): 100% | IC50 [2, 7]: 119 ± 49 µM | IC50 [2, 8]: 161 ± 82 µM | IC50 [3, 11]: 187 ± 28 µM | IC50 [3, 12]: 148 ± 14 µM

CC[N+]1(CC)CCCN(c2ccc(F)cc2)CC1 [ASM-049, 1,1-Diethyl-4-(4-fluorophenyl)-homopiperazinium Tosylate]
IC50 [1, 17]: 331 µM | IC50 [1, 18]: 252 µM | IC50 [4, 19]: 452 µM | IC50 [4, 20]: 109 µM | IC50 [2, 7]: 81 ± 74 µM | IC50 [2, 8]: 42 ± 34 µM | IC50 [3, 9]: > 700 µM | IC50 [3, 10]: 288 ± 61 µM

CC[N+]1(CC)CCCN(c2ccc(O)cc2)CC1 (as salt: tosylate) [ASM-073, 1,1-Diethyl-4-(phenyl-4-hydroxy)-homopiperazinium tosylate]
melting point: 144 to 145.5 °C

C[N+]1(C)[C@@H]2C[C@@H](OC(=O)C(O)(c3cccs3)c3cccs3)C[C@H]1[C@@H]1O[C@@H]12 [Tiotropium, reference compound]
cell proliferation / cell growth inhibition (in words) ([1]; H82, day 3 and day 6, text on figures): no significant cell growth inhibition | IC50 (in words) ([1]; H82, cell line not given): No IC50 could be calculated | cell proliferation / cell growth inhibition (in words) ([2]; A549, day 3 and day 6, text on figures): no significant cell growth inhibition | IC50 (in words) ([2]; A549, cell line not given): No IC50 could be calculated | cell proliferation / cell growth inhibition (in words) ([3]; H520, day 3 and day 6, text on figures): no significant cell growth inhibition | IC50 (in words) ([3]; H520, cell line not given): No IC50 could be calculated

C[N+]1(C)CCCN(c2ccc(C(F)(F)F)cc2)CC1 (as salt: tosylate) [ASM-058, 1,1-Dimethyl-4-(4-trifluoromethylphenyl)-homopiperazinium Tosylate]
melting point: 212.6 to 213.4 °C

CC[N+]1(C)CCCN(c2ccccc2)CC1.[I-] (centres unmarked) (hydrate or solvate) [ASM-055, 1-Ethyl-1-Methyl-4-(phenyl)-homopiperazinium Tosylate]
melting point: 167.5 to 168.7 °C

C[N+]1(C)CCCN(c2ccc(C(F)(F)F)cc2)CC1 [ASM-071, 4-Dimethyl-1-(4-trifluorophenyl)-homopiperazinium Iodide]
IC50 [2, 13]: 25 ± 15 µM | IC50 [2, 14]: 18 ± 9 µM | IC50 ([3]; read-out: IC50 Day 3, H520, day 3 in culture): 523 ± 292 µM | IC50 ([3]; read-out: IC50 Day 6, H520, day 6 in culture): 235 ± 179 µM

C[N+]1(C)CCCN(c2ccc(C(F)(F)F)cc2)CC1 [ASM-058, 1,1-Dimethyl-4-(4-trifluoromethylphenyl)-homopiperazinium Tosylate]
IC50 [1, 21]: 472 µM | IC50 [1, 22]: 299 µM | IC50 [2, 7]: 22 ± 10 µM | IC50 [2, 8]: 27 ± 26 µM | IC50 [3, 11]: 356 ± 143 µM | IC50 [3, 12]: 210 ± 82 µM

CC[N+]1(CC)CCCN(c2ccccc2)CC1.[Cl-] [ASM-022, 1,1-Diethyl-4-phenyl-homopiperazinium Chloride]
% Inhibition of Cell Growth at day 3 compared to vehicle-treated cells ([1]; H82, day 3, 3 × 10^−4M): 55% | % Inhibition of Cell Growth at day 3 compared to vehicle-treated cells ([1]; H82, day 3, 10^−4M): 23% | IC50 [2, 13]: 46 ± 7 µM | IC50 [2, 14]: 45 ± 32 µM | IC50 [3, 15]: > 700 µM | IC50 [3, 16]: 387 ± 178 µM

CC(C)[N+]1(C)[C@@H]2CC[C@H]1C[C@@H](OC(=O)C(CO)c1ccccc1)C2 (some centres unmarked) [ipratropium, reference compound]
cytotoxic effect ([2]; A549, at 1000 μM): cytotoxic effect

Cc1cccc(N2CCC[N+](C)(C)CC2)c1 [ASM-068, 4-Dimethyl-1-(3-methylphenyl)-homopiperazinium Tosylate]
IC50 [1, 21]: 298 µM | IC50 [1, 22]: 179 µM | IC50 ([4]; Calu-3, 72 h, read-out: IC50 Day 3): > 1000 µM | IC50 ([4]; Calu-3, 144 h, read-out: IC50 Day 6): 52 µM | IC50 [2, 7]: 36 ± 17 µM | IC50 [2, 8]: 20 ± 16 µM | IC50 [3, 11]: 580 ± 85 µM | IC50 [3, 12]: 233 ± 31 µM

CC[N+]1(CC)CCCN(c2ccccc2)CC1.[Br-] [ASM-021, 1,1-Diethyl-4-phenyl-homopiperazinium Bromide]
% Inhibition of Cell Growth at day 3 compared to vehicle-treated cells ([1]; H82, day 3, 3 × 10^−4M): 59% | % Inhibition of Cell Growth at day 3 compared to vehicle-treated cells ([1]; H82, day 3, 10^−4M): 13% | IC50 [2, 7]: 45 ± 12 µM | IC50 [2, 8]: 51 ± 39 µM | IC50 [3, 15]: > 1000 µM | IC50 [3, 10]: 369 ± 171 µM

CC[N+]1(CC)CCCN(c2ccccn2)CC1 [ASM-037, 1,1-Diethyl-4-(2-pyridyl)-homopiperazinium Tosylate]
inhibition at 300 µM [1, 5]: 29% | inhibition at 100 µM [1, 6]: 10% | IC50 [2, 7]: 146 ± 92 µM | IC50 [2, 8]: 112 ± 96 µM | IC50 [3, 9]: > 1000 µM | IC50 [3, 10]: 634 ± 124 µM
